Test results taken from patent publication EP1845096A1, “12-Aza-epothilones, process for their preparation and their use as antiproliferative agents” (ETH Zürich, priority 2006, dated 2007).
Like-named read-outs stand apart in the source and are kept apart here.

Assays:
KB-31 = assay: Human cancer cell growth inhibition, methylene blue staining, KB-31; type: cell-based; details: read-out: IC50 KB-31
Protocol: (§1) Stock solutions of the test compounds (2 mM) are prepared in DMSO and stored at -20°C. Human KB-31 and (multidrug-resistant, P-gp170 expressing) KB-8511 epidermoid carcinoma cells (Akiyama et al., Somat. Cell. Mol. Genetics 1985, 11, 117-120), which are both derivatives of the KB cell line (ATCC) and are human epidermis carcinoma cells, are employed. KB 31 cells may be cultivated in mono-layers using Dulbecco's modified Eagle's medium (D-MEM) with 10% foetal calf serum (M.A. Bioproducts), L-glutamine (Flow), penicillin (50 units/ml) and streptomycin (50 µg/ml) (Flow); they then grow at a duplication time of ca. 22 hours, and their relative plating efficiency is ca. 60%. KB-8511 is a variant derived from the KB-31 cell line, which is obtained using colchicine treatment cycles, and has an approximately 40 times relative resistance to colchicine compared with KB-31 cells. […] The cells are seeded in a quantity of 1.5 x 10^3 cells/well in 96-well microtitre plates, and incubated over night. […] After washing, the dye is eluted with 3% HCl and the optical density measured at 665 nm with a GeniosPro plate spectrophotometer (Tecan, Switzerland). IC50 values are determined by adaptation of mathematical curves, using the formula [(OD treated)-(OD start) [/] […]

A549 = assay: Human cancer cell growth inhibition, methylene blue staining, A549; type: cell-based
Protocol: (§2) Stock solutions of the test compounds (2 mM) are prepared in DMSO and stored at -20°C. Human KB-31 and (multidrug-resistant, P-gp170 expressing) KB-8511 epidermoid carcinoma cells (Akiyama et al., Somat. Cell. Mol. Genetics 1985, 11, 117-120), which are both derivatives of the KB cell line (ATCC) and are human epidermis carcinoma cells, are employed. KB 31 cells may be cultivated in mono-layers using Dulbecco's modified Eagle's medium (D-MEM) with 10% foetal calf serum (M.A. Bioproducts), L-glutamine (Flow), penicillin (50 units/ml) and streptomycin (50 µg/ml) (Flow); they then grow at a duplication time of ca. 22 hours, and their relative plating efficiency is ca. 60%. KB-8511 is a variant derived from the KB-31 cell line, which is obtained using colchicine treatment cycles, and has an approximately 40 times relative resistance to colchicine compared with KB-31 cells. The cells are incubated at 37°C in an incubator with 5% v/v CO2 and at 80% relative humidity with MEMAlpha medium which contains ribonucleosides and desoxyribonucleosides (Gibco BRL), complemented with 10 IU penicillin, 10 µg/ml streptomycin and 5% foetal calf serum. The cells are seeded in a quantity of 1.5 x 10^3 cells/well in 96-well microtitre plates, and incubated over night. Serial dilutions of the test compounds in culture medium are added on day 1. […] After washing, the dye is eluted with 3% HCl and the optical density measured at 665 nm with a GeniosPro plate spectrophotometer (Tecan, Switzerland). IC50 values are determined by adaptation of mathematical curves, using the formula [(OD treated)-(OD start) [/] (OD control)-(OD start)] x 100. The IC50 is defined as the concentration of a test compound at the end of the incubation period, which led to 50% of the cell count per well compared with the control (concentration at semi-maximum inhibition of cell growth).
(§3) The preferred ranges of the IC50 values of compounds of formula (I) are given in square parentheses. A549 (lung; ATCC CCL 185) [0.01 to 100 nM], HCT-116 (colon) [0.05 to 200 nM], and PC-3M cells (prostate, hormone-insensitive derivative derived from PC-3, ATCC CRL 1435) [0.05 to 500 nM] were grown in RPMI-1640 medium supplemented with 10% FBS.

HCT-116 = assay: Human cancer cell growth inhibition, methylene blue staining, HCT-116; type: cell-based; details: read-out: IC50 HCT-116
Protocol: as §2, §3

porcine brain αβ-tubulin = porcine brain αβ-tubulin (Sus scrofa, UniProt P02554); assay: Tubulin polymerization (turbidimetry at 340 nm); type: biochemical
porcine brain αβ-tubulin, sequence (P02554 whole entry): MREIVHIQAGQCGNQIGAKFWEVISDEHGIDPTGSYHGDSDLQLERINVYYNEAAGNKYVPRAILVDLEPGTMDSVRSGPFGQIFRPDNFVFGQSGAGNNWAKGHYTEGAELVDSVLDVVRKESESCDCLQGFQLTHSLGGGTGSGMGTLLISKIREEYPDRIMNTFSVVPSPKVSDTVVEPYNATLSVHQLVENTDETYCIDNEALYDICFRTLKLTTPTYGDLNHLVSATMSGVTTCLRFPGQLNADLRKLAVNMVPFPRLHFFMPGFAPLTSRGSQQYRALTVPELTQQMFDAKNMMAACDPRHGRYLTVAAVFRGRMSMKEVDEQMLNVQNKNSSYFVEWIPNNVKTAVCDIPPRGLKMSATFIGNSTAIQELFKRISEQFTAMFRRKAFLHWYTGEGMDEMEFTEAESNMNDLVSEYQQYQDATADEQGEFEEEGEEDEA
porcine brain αβ-tubulin, sequence (P02550 whole entry partner): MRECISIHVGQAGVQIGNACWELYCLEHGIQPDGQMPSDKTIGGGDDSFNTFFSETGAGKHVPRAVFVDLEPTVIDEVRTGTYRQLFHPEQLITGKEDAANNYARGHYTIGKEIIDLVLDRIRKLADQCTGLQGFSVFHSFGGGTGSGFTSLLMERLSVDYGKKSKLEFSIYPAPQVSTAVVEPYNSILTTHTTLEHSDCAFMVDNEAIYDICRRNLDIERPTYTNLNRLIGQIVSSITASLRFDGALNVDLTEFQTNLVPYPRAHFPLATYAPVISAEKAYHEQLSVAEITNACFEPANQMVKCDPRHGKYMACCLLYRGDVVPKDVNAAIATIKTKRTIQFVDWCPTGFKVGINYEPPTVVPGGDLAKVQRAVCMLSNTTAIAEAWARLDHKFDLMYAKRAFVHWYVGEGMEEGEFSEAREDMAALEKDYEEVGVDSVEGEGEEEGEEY
Protocol: Tubulin is isolated as pure αβ-tubulin from fresh pig brain according to the method of Castoldi and Popov (Protein Expr. Purif. 2003, 32, 83-88). Working stock solutions of αβ-tubulin are stored at -80°C. Freshly thawed αβ-tubulin is centrifuged and then incubated with the compounds to be tested in suitable solvents and buffers, guanosine-5'-triphosphate (GTP), and glutamate in a 96-well plate, as described in more detail below in the Examples. The polymerization is monitored real-time at 340 nm in a temperature-controlled TECAN GeniosPro spectrophotometer. UV absorption of compounds is subtracted from absorption curves.
Tubulin was isolated as pure αβ-tubulin from fresh pig brain according to the method of Castoldi and Popov (Protein Expr. Purif. 2003, 32, 83-88). Fresh brains were obtained from the local slaughterhouse and processed immediately without prior cooling. 150-200 g cleaned pig brain was put into ice-cooled depolymerization buffer (50 mM MES [2-morpholinoethanesulphonic acid], 1 mM CaCl2, adjusted to pH 6.9 with KOH) and homogenized in a Polytron mixer. The homogenate was centrifuged in a Sorvall SLA-1500 rotor at 14500 rpm for 60 min. The supernatant was transferred into an Erlenmeyer flask in high-molarity PIPES buffer (1 M PIPES [1,4-piperazinediethanesulfonic acid], 10 mM MgCl2, 20 mM EGTA [ethylene glycol-bis-2(2-aminoethyl)-tetraacetic acid] adjusted to pH 6.9 with KOH) plus […] (1.5 mM final concentration) and glycerol (98%) ad 300 ml. The resulting suspension was mixed and incubated at 37°C for 1 hour. Aliquots were transferred into ultracentrifuge tubes and centrifuged in a Beckman Ti50.2 rotor at.32500 rpm (96000 g) for 75 min at 30°C. The microtubule protein pellets were resuspended in depolymerization buffer and put on ice prior to ultracentrifugation at 4°C. The procedure was repeated for two polymerization cycles (total of 3 cycles) and the final αβ-tubulin pellets were resuspended in ice-cold Brinkley Buffer (BRB80; 80 mM PIPES, 1 mM MgCl2, 1 mM EGTA adjusted to pH 6.8 with KOH) prior to shock-freezing in liquid nitrogen and subsequent storage at -80°C. αβ-tubulin purity and concentration were determined by SDS-PAGE gel electrophoresis and spectrophotometrically (A = ε x c x d with a given extinction coefficient of 115'000 M^-1cm^-1) at 280 nm. This procedure typically yielded 60-100 mg of αβ-tubulin per 100 g of brain.
Freshly thawed αβ-tubulin was centrifuged at 5000 g for 5 min at 5°C and then incubated with additional BRB80 buffer, drugs, DMSO vehicle, guanosine-5'-triphosphate (GTP) / glutamate (25 mM /2.7 M), respectively, in a 96-well plate in either 50 or 100 µl volumes. Experiments were either carried out in a 96-well quartz plate or in normal 96-well polystyrene plates (Falcon). The polymerization was monitored real-time at 340 nm in a temperature-controlled TECAN GeniosPro spectrophotometer. Depending on the specific experiment, the temperature was set either to room temperature (actual measuring temperature was 24-27°C) or 37°C. […] UV absorption of compounds was subtracted from absorption curves. All experiments, along with both negative (untreated αβ-tubulin) and vehicle controls, were carried out in triplicate. Experiments were performed at least with two different αβ-tubulin batches.

PC-3M = assay: Human cancer cell growth inhibition, methylene blue staining, PC-3M; type: cell-based; details: read-out: IC50 PC-3M
Protocol: as §2, §3

[1] = system: drug-sensitive human cancer cells; assay: Potency comparison on drug-sensitive human cancer cell lines (from Table 1); type: cell-based; details: potency ratio versus reference compound B
Protocol: as §1

SMILES | IC50 (KB-31; KB 3-1, 72 h) | IC50 (A549; A549, read-out: IC50 A549) | IC50 (HCT-116; HCT-116, 72 h) | EC50 (porcine brain αβ-tubulin) | IC50 (PC-3M; PC-3M) | IC50 (KB-31; KB 3-1, KB-31: cervical (or cervix), parental line, cells exposed for 72 h) | IC50 (A549; A549: lung, cells exposed, mean of at least three experiments ± standard deviation, read-out: IC50 A549) | IC50 (HCT-116; HCT-116: colon, cells exposed for 72 h, mean of at least three experiments ± standard deviation) | EC50 (porcine brain αβ-tubulin; concentration required to induce 50% of the maximum αβ-tubulin polymerization achievable with the respective compound, 10 µM of porcine brain αβ-tubulin, turbidity at 340 nm, mean ± standard deviation, read-out: EC50 Tubulin polymerization) | more potent against drug-sensitive human cancer cells than aza-epothilone B [1] | IC50 (PC-3M; PC-3M: prostate, cells exposed, mean of at least three experiments ± standard deviation)
C/C(=C\c1csc(C)n1)[C@@H]1CCN(C(=O)OC(C)(C)C)CCC[C@H](C)[C@H](O)[C@@H](C)C(=O)C(C)(C)[C@@H](O)CC(=O)O1 [B, reference compound] | 31 nM | 130 ± 24 nM | 110 ± 19 nM | 5600 ± 400 nM | 126 ± 22 nM | – | – | – | – | – | –
C/C(=C\c1csc(C)n1)[C@@H]1C[C@@H]2O[C@@H]2CCC[C@H](C)[C@H](O)[C@@H](C)C(=O)C(C)(C)[C@@H](O)CC(=O)O1 [C, Epothilone A, reference compound] | – | 3.2 ± 0.5 nM | 2.2 ± 0.3 nM | 4600 ± 500 nM | 3.4 ± 0.4 nM | – | – | – | – | – | –
Cc1nc2cc([C@@H]3CCN(C(=O)OCC(F)(F)F)CCC[C@H](C)[C@H](O)[C@@H](C)C(=O)C(C)(C)[C@@H](O)CC(=O)O3)ccc2n1C [Compound 3] | – | 11.5 ± 1.8 nM | 17.1 ± 3.3 nM | 5100 ± 500 nM | 6.3 ± 2.1 nM | – | – | – | – | – | –
Cc1nc2cc([C@@H]3CCN(C(=O)OC(C)(C)C)CCC[C@H](C)[C@H](O)[C@@H](C)C(=O)C(C)(C)[C@@H](O)CC(=O)O3)ccc2n1C [Compound 1, (2S,9S,10S,11R,14S)-tert-butyl-2-(1,2-dimethyl-1H-benzo[d]imidazol-5-yl)-10,14-dihydroxy-9,11,13,13-tetramethyl-12,16-dioxo-1-oxa-5-azacyclohexadecane-5-carboxylate] | – | – | – | – | – | 0.35 nM | 1.9 ± 0.4 nM | 1.6 ± 0.5 nM | 3900 ± 600 nM | > 60 fold | 2.3 ± 0.6 nM
Cc1nc2cc([C@@H]3CCN(c4ccc([N+](=O)[O-])c5nonc45)CCC[C@H](C)[C@H](O)[C@@H](C)C(=O)C(C)(C)[C@@H](O)CC(=O)O3)ccc2n1C [Compound 17, (2S,9S,10S,11R,14S)-2-(1,2-dimethyl-1H-benzo[d]imidazol-5-yl)-10,14-dihydroxy-9,11,13,13-tetramethyl-5-(7-nitrobenzo[c][1,2,5]oxadiazol-4-yl)-1-oxa-5-azacyclohexadecane-12,16-dione] | – | 329 ± 237 nM | 206 ± 8 nM | 7200 ± 600 nM | 244 ± 45 nM | – | – | – | – | – | –
Cc1nc2cc([C@@H]3CCN(C(=O)OC(C)(C)C)C/C=C/[C@H](C)[C@H](O)[C@@H](C)C(=O)C(C)(C)[C@@H](O)CC(=O)O3)ccc2n1C [A, (2S,9S,10S,11R,14S,E)-tert-butyl-2-(1,2-dimethyl-1H-benzo[d]imidazol-5-yl)-10,14-dihydroxy-9,11,13,13-tetramethyl-12,16-dioxo-1-oxa-5-azacyclohexadec-7-ene-5-carboxylate, reference compound] | – | 920 ± 85 nM | 1010 ± 71 nM | 9100 ± 700 nM | 973 ± 64 nM | – | – | – | – | – | –
CCOC(=O)N1CCC[C@H](C)[C@H](O)[C@@H](C)C(=O)C(C)(C)[C@@H](O)CC(=O)O[C@H](c2ccc3c(c2)nc(C)n3C)CC1 [Compound 2] | – | 18 ± 3.1 nM | 23.9 ± 2.9 nM | 5400 ± 400 nM | 12.3 ± 1.1 nM | – | – | – | – | – | –
